This passage reports TGI results from PubChem BioAssay (NCI).

Common to all, as to assay: growth of human tumour cells (NCI), 48 h
Assay [1] deals with DLD-1 colon.
For assay [2], the system named is HCC-2998 colon.
Assay [3] relates to CAKI-1 renal.
In assay [4] the test system is KM20L2 colon.
The subject of assay [5] is A549 NSCLC.
Assay [6] deals with M19-MEL melanoma.
Assay [7] has as its system MOLT-4 leukemia.
The subject of assay [8] is ACHN renal.
Assay [9] concerns DMS 114 small cell lung.
Assay [10] concerns DMS 273 small cell lung.
Assay [11] concerns LXFL 529 NSCLC.
Assay [12] concerns SNB-78 CNS.
Assay [13] relates to XF 498 CNS.
For assay [14], the system named is HOP-18 NSCLC.

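Values below derive from 48-hour exposures of cells grown in 96-well plates, with endpoints linearly interpolated between the two concentrations bracketing the appropriate inhibition level. Definition used: TGI = concentration required for complete inhibition of growth.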

`[N-]=[N+]=NC(c1cn(C2CC(O)C(CO)O2)c(=O)[nH]c1=O)C(Br)I` (stereo not drawn): the TGI in assay [1], in [2], in assay [3], in assay [4], in assay [5] and in [6] was over 100 µM each time. Also, the TGI in [7], in assay [8], in [9], in assay [10], in [11] and in [12] was over 100 µM throughout.
In the case of `CCOC(=O)CC(=O)Sc1ccccc1`, the TGI is 93.4 µM in assay [13]; 53.6 µM in assay [1]; over 100 µM in assay [14]; 96 µM in assay [2]; 47.5 µM in [4]; 60.6 µM in [5]. Moreover, the TGI turned out to be 48.4 µM in [6]; 72.6 µM in assay [7]; 65.7 µM in assay [8]; 32 µM in [9]; 46 µM in assay [10].
For the compound `c1ccc2c(c1)ccc1nc(-c3ccc4c(c3)OCO4)c3c(c12)CCC3`, the TGI in assay [2], in assay [3], in [5], in assay [7] and in assay [8] was over 100 µM each time.
As to `O=C1CCc2cc3c(cc21)C(C(=O)O)CC3` (stereo not drawn), the TGI in assay [2], in assay [3], in assay [5], in assay [7] and in assay [8] was over 100 µM each time.
Regarding `CN(c1ccc(Cl)cc1)S(=O)(=O)c1ccccc1`, the TGI in assay [2], in assay [3], in [5], in [7] and in [8] was over 100 µM in each case.
Consider `CC(=O)Nc1nc(C)c(S(=O)(=O)NC(=O)N2c3ccccc3CCc3ccccc32)s1`, for which the TGI in [2], in assay [3], in assay [5], in [7] and in assay [8] was over 100 µM in each case.
As to `O=C1/C(=C/c2cccs2)N=C(c2ccccc2)N1c1nc2ccccc2s1`, the TGI in [2], in assay [3], in assay [5], in assay [7] and in assay [8] was over 100 µM each time.
Take `O=C1Sc2cc3ccccc3cc2C(=O)Sc2cc3ccccc3cc21`: the TGI in assay [2] is 58.7 µM; in assay [3] it was over 90.1 µM; in [5] it was over 100 µM; in [7], 76.8 µM; in assay [8], over 63.6 µM.
In the case of `O=C(NCCNCCO)N/N=C/c1ccccc1`, the TGI in assay [13], in assay [1], in assay [14], in [5], in assay [7] and in assay [8] was over 100 µM each time. The TGI in assay [9], in assay [10], in [11] and in assay [12] was over 100 µM in each case.
As to `CCOC(=O)c1nc2ccccc2nc1Nc1ccc(F)cc1`, the TGI in assay [2] was over 100 µM; in assay [3], over 100 µM; in assay [5], over 100 µM; in assay [7], over 100 µM; in assay [8], over 93.6 µM.
As to `CC(=O)Nc1ccc(C(=O)N2N=C(C)/C(=C/c3ccccc3O)C2=O)cc1`, the TGI in assay [13], in assay [1], in assay [14], in assay [2], in assay [3] and in [5] was over 100 µM each time. In addition, the TGI in assay [6], in assay [7], in [8], in assay [9], in [10] and in assay [12] was over 100 µM throughout.
`CC1Cc2c(cc(N)nc2Br)NC1=O` (stereo not drawn): the TGI in [2], in assay [3], in assay [5], in assay [7] and in assay [8] was over 100 µM throughout.
For `CCCCCCCCCCC[N+]1(Cc2ccccc2)CC2CCN(Cc3ccccc3)CC2C1` (stereo not drawn), the TGI in [2] is 2 µM; in assay [3], 2.74 µM; in assay [5] it was 2.43 µM; in assay [7], 1.25 µM; in [8], 2.43 µM.
For the compound `CCn1c(O)c(C(=O)NC(C)c2ccc([N+](=O)[O-])cc2)c(=O)n(CC)c1=S` (stereo not drawn), the TGI in assay [2] came to 10.7 µM; in assay [3], 10.1 µM; in assay [5] it was 11.5 µM; in assay [7], 5.52 µM; in [8] it was 11.2 µM.
`CCOC(=O)COC1=Nc2cc(OC)c(OC)c3nc(Cl)cc(c23)C1=O`: the TGI was found to be 10.5 µM in assay [2]; 3.58 µM in assay [3]; 18.3 µM in assay [5]; 5.91 µM in assay [7]; 3.02 µM in [8].
The corresponding values for `Oc1ccc(O)c(Sc2nnc(CCCCCCCCc3nnc(Sc4cc(O)ccc4O)o3)o2)c1` are over 100 µM, 69.7 µM, over 100 µM, over 100 µM and 85.9 µM.
Consider `COc1c(-c2ccc(F)cc2)oc2cc(O)cc(O)c2c1=O`, for which the TGI was 31.9 µM in assay [2]; 48.5 µM in [3]; over 100 µM in assay [5]; over 100 µM in assay [7]; 93.4 µM in assay [8].
As for `O=C(O)c1cc(Nc2c(O)c3c(c(O)c2Cl)C(=O)C=CC3=O)ccc1O`, the TGI in assay [2], in [3], in [5], in assay [7] and in assay [8] was over 10 µM throughout.
In the case of `O=c1n(C2CCCCC2)c(=C(Cl)Cl)c(=C(Cl)Cl)n1C1CCCCC1`, the TGI in [13], in assay [1], in [14], in [2], in [4] and in [5] was over 100 µM each time. The TGI in [6], in [7], in [8], in assay [9], in assay [10] and in assay [12] was over 100 µM in each case.
In the case of `O=C1/C(=C(/Br)I)c2ccccc2-c2ccccc21`, the TGI in assay [2] worked out at 11.4 µM; in [3] it was 16.9 µM; in assay [5], 32 µM; in [7] it was 6.27 µM; in assay [8] it was 19 µM.
For `Cc1ccc(S(=O)(=O)CC2CCCn3c2c(C#N)c2ccccc23)cc1` (stereo not drawn) the same measures were over 100 µM, over 100 µM, over 100 µM, over 100 µM and over 100 µM.
Regarding `CC(C)(C)C(=O)O[C@H]1C=C[C@@H](O)[C@@H]2[C@H]1[C@@H]1C=C[C@H]2C1`, the TGI in assay [2] was 32.4 µM; in assay [3], over 100 µM; in assay [5] it was over 100 µM; in assay [7], 83.8 µM; in assay [8], over 100 µM.
Regarding `CC(=O)NCC1OC2COC(c3ccccc3)OC2C2N=C(c3ccccc3)OC12` (stereo not drawn), the TGI in [2], in assay [3], in assay [5], in [7] and in assay [8] was over 100 µM each time.
Take `CC(C)CCCC(C)[C@H]1CC[C@H]2NCCCC[C@]12C` (stereo partly drawn): the TGI in assay [2] was determined as 2.72 µM; in assay [3], 22.8 µM; in [5] it was 31.7 µM; in assay [7] it was 6.32 µM; in assay [8] it was 4.78 µM.
As to `CC(C)NCCNC(=O)c1ccccc1Nc1c(Cl)cccc1Cl`, the TGI is 11.4 µM in assay [13]; 25.7 µM in assay [1]; 5.78 µM in assay [4]; 33.9 µM in [5]; 20.8 µM in [6]; 27.3 µM in assay [7]. Also, the TGI in [8] turned out to be 31.2 µM; in assay [9] it was 23.4 µM; in assay [10] it was 26.6 µM; in [11], 31.5 µM; in assay [12], 31.5 µM.
In the case of `COc1ccc(C2C3=CONC3CC3CCCCC32)cc1` (stereo not drawn), the TGI in [2] is 47.3 µM; in assay [3], over 100 µM; in assay [5], over 100 µM; in assay [7], over 100 µM; in assay [8], over 100 µM.
`N#C[C@H]1C(=O)C(c2nc3ccccc3[nH]2)S[C@H]1c1ccccc1` (stereo partly drawn): the TGI is over 100 µM in assay [2]; over 100 µM in [3]; over 100 µM in assay [5]; over 100 µM in assay [7]; 57.6 µM in assay [8].
With `CCCC(CC)c1cc(O)c(O)cc1C(CC)CCC` (stereo not drawn), the TGI in assay [2], in [3], in assay [5], in [7] and in [8] was over 10 µM throughout.
Regarding `COc1ccc(C(=O)/C=C/c2ccc(OCCCOc3ccc(/C=C/C(=O)c4ccc(OC)c(OC)c4)cc3)cc2)cc1OC`, the TGI in assay [2], in [3], in [5], in assay [7] and in [8] was over 100 µM in each case.
`O=C1c2ccccc2C2(c3ccc(Cl)cc3)N[C@@H]3CCCC[C@@H]3N12` (stereo partly drawn): the TGI in assay [2], in [3], in assay [5], in assay [7] and in assay [8] was over 100 µM in each case.
In the case of `Cc1cc2nc3c(N)nn(CCN(C)C)c3nc2cc1C`, the TGI in assay [2] was over 100 µM; in [3] it was over 100 µM; in assay [5], over 100 µM; in assay [7], over 100 µM; in assay [8] it was 95.5 µM.
Turning to `Cc1ccc(C(=O)NN=C(/N=N/c2cccc(C)c2)c2ccc(N(C)C)cc2)cc1`, the TGI in assay [2], in [3], in assay [5], in assay [7] and in assay [8] was over 100 µM in each case.
Consider `O=c1cnc2cc3ccccc3cc2[nH]1`, for which the TGI in [2], in assay [3], in assay [5], in assay [7] and in [8] was over 100 µM in each case.
In the case of `OCC1c2ccccc2-n2nc(-c3ccccc3)c(O)c21` (stereo not drawn), the TGI in [2] is 44.8 µM; in assay [3] it was 31.7 µM; in assay [5] it was over 100 µM; in [7], over 100 µM; in assay [8], 30.6 µM.
Turning to `O=C1/C(=C/C=C/c2ccccc2)CCC1CNc1ccc(Br)cc1` (stereo not drawn), the TGI in assay [2], in [3], in assay [5], in assay [7] and in assay [8] was over 100 µM each time.
For `CCOc1ccccc1N=NC1C(=O)N(C(=O)CC(=O)Nc2ccccc2OC)N=C1C` (stereo not drawn), the TGI in [2], in assay [3], in assay [5], in assay [7] and in assay [8] was over 100 µM in each case.
Consider `CN1C(=O)C(CCO)(C(C)(C)C)c2ccccc21` (stereo not drawn), for which the TGI in assay [2], in assay [3], in [5], in assay [7] and in [8] was over 100 µM in each case.
Regarding `COc1ccc(/C=N/N=C(\N)NO)c(OC)c1OC`, the TGI was over 100 µM in assay [2]; over 100 µM in [3]; over 100 µM in [5]; over 100 µM in assay [7]; 67.2 µM in [8].
As for `N#CC(NNC(=O)c1ccccc1O)c1ccc(O)cc1` (stereo not drawn), the TGI in assay [14] was over 100 µM; in assay [3] it was 98.9 µM; in [4], over 100 µM; in assay [5], over 100 µM; in assay [6] it was over 100 µM; in assay [7], over 100 µM. For the same compound, the TGI in [8] was over 100 µM; in [9], 8.62 µM; in assay [10], over 100 µM; in [11], over 100 µM.
